# Measured values as given in patent US6090780A (Chandon Prasad, priority 1999, dated 2000).
# Assays:
# Assay type in all cases: in vivo
# [1] = system: Sprague-Dawley rats; assay: Effect of intraperitoneal and oral administration of CHP on food intake; conditions: for food intake, mean ± SEM, n = 6: 7 h after 21 h fast; for effect on food consumption: up to 50 mg/Kg of body weight
# Method: Thirty-six outbred adult male Sprague-Dawley rats, certified virus free, obtained from Hilltop Laboratories, New York, N.Y. were housed in a temperature and light controlled room for a period of at least seven days after arrival. Sprague-Dawley rats are white albino outbred rats. The temperature of the room was maintained at about 20-21° C. The lights in the room were cycled between on and off every twelve hours. The rats were allowed free access to Purina Chow food and water prior to beginning the experiment. For the experiment rats were divided into six groups of six rats each. […] The amount of CHP in each dose was based on the body weight of the individual rat. Rats were fasted for about 21 hours from food but not water. Oral dosages of CHP were administered using a gavage tube according to each rat group. The rats were then given access to Purina Chow and water for the next seven hours. Food intake during the seven hours was measured in grams per rat and averaged for each group. […] At the end of this period, the experiment was repeated using intraperitoneal administration.
# [2] = system: C57BL mice; assay: Voluntary alcohol consumption in alcohol naive mice (two-bottle choice); conditions: for % ETHANOL PREFERENCE (mean ± SEM): 7 days
# Method: Forty adult male C57BL mice were obtained from Jackson Laboratories and housed individually in light controlled rooms for a period of at least ten days after arrival with free access to Purina Chow and water. The lights were cycled on and off every twelve hour period. Mice were divided into four groups of ten. Each room was fitted with two 250 ml bottles having drip proof drinking spouts on both sides of a food bin containing Purina Chow. One bottle contained 6% (V/V) ethanol in water whereas the other bottle contained water. […] The two bottles were frequently exchanged with each other to minimize positional preference. Fluid intake from each bottle was recorded after 7 days.
# Ethanol preference was calculated as ethanol intake/(ethanol intake+water intake)×100.
# [3] = system: C57BL mice; assay: Voluntary alcohol consumption in alcohol experienced mice (two-bottle choice); conditions: for ETHANOL PREFERENCE (%): 7 days
# Method: Forty adult male C57BL mice were obtained from Jackson Laboratories and housed individually in light controlled rooms for a period of at least ten days prior to beginning the experiment with free access to Purina Chow and water. The lights were cycled on and off every twelve hour period. The mice were divided into four groups of ten. Each room was fitted with two 250 ml bottles having drip proof drinking spouts on both sides of a food bin containing Purina Chow. Both bottles contained 6% (V/V) ethanol in water and were the only source of fluid available. Mice were allowed to drink for seven days. On the eighth day, one bottle containing ethanol in water was removed and replaced with a 250 ml bottle containing water. […] The bottles were frequently exchanged to discourage positional preference. Fluid intake from each bottle was recorded after an additional 7 days. % Ethanol preference was calculated for each group.
# [4] = CHP 1 μg/ml fluid in each bottle
# [5] = CHP 5 μg/ml fluid in each bottle
# [6] = CHP 10 μg/ml fluid in each bottle
substance,measurement,setting,value
Histidyl-proline diketopiperazine [CHP],"food intake, mean ± SEM, n = 6","[1]; intraperitoneal, 1 mg/kg of body weight",17.6 ± 3.6 g/rat
same,"food intake, mean ± SEM, n = 6","[1]; intraperitoneal, 5 mg/kg of body weight",14.2 ± 0.7 g/rat
same,"food intake, mean ± SEM, n = 6","[1]; intraperitoneal, 10 mg/kg of body weight",14.1 ± 2.9 g/rat
same,"food intake, mean ± SEM, n = 6","[1]; intraperitoneal, 20 mg/kg of body weight",14.4 ± 1.0 g/rat
same,"food intake, mean ± SEM, n = 6","[1]; intraperitoneal, 50 mg/kg of body weight",14.7 ± 1.2 g/rat
same,effect on food consumption,"[1]; intraperitoneal, ANOVA F=1.86, p=0.13",no significant effect
same,"food intake, mean ± SEM, n = 6","[1]; oral, 1 mg/kg of body weight",14.3 ± 2.2 g/rat
same,"food intake, mean ± SEM, n = 6","[1]; oral, 5 mg/kg of body weight",14.7 ± 1.2 g/rat
same,"food intake, mean ± SEM, n = 6","[1]; oral, 10 mg/kg of body weight",13.1 ± 2.1 g/rat
same,"food intake, mean ± SEM, n = 6","[1]; oral, 20 mg/kg of body weight",15.1 ± 2.3 g/rat
same,"food intake, mean ± SEM, n = 6","[1]; oral, 50 mg/kg of body weight",15.7 ± 1.7 g/rat
same,effect on food consumption,"[1]; oral, ANOVA F=0.92",no significant effect
same,effect on average daily fluid intake,"[2]; ANOVA: F=0.09, p=0.96",did not effect
same,alcohol preference after CHP administration,"[2]; ANOVA: F=3.73, p=0.019",dose dependence decrease
same,AVERAGE FLUID INTAKE,[2]; [4],2.9 mL/day
same,% ETHANOL PREFERENCE (mean ± SEM),[2]; [4],29 ± 6%
same,AVERAGE FLUID INTAKE,[2]; [5],2.8 mL/day
same,% ETHANOL PREFERENCE (mean ± SEM),[2]; [5],23 ± 6%
same,AVERAGE FLUID INTAKE,[2]; [6],2.7 mL/day
same,% ETHANOL PREFERENCE (mean ± SEM),[2]; [6],15%
same,alcohol preference after CHP administration,"[3]; ANOVA: F=3.88, p=0.0195",dose dependence decrease
same,ETHANOL PREFERENCE (%),[3]; [4],58%
same,ETHANOL PREFERENCE (%),[3]; [5],54%
same,ETHANOL PREFERENCE (%),[3]; [6],40%
